Tests used:
Streptococcus pneumoniae [1] = experiment: Antimicrobial activity against telithromycin-resistant Streptococcus pneumoniae 115 isolate with erm(B) resistance gene from patient ear by disk diffusion test; format: functional
Streptococcus pneumoniae [2] = experiment: Antimicrobial activity against telithromycin-resistant Streptococcus pneumoniae 897 isolate with erm(B) resistance gene from patient bronchoalveolar lavage by disk diffusion test; format: functional, Lung
Streptococcus pneumoniae [3] = experiment: Antimicrobial activity against telithromycin-resistant Streptococcus pneumoniae 237 isolate with erm(B) resistance gene from patient ear by disk diffusion test; format: functional
Streptococcus pneumoniae [4] = experiment: Antimicrobial activity against telithromycin-resistant Streptococcus pneumoniae 415 isolate with erm(B) resistance gene from patient blood by disk diffusion test; format: functional
Streptococcus pneumoniae [5] = experiment: Antimicrobial activity against telithromycin-resistant Streptococcus pneumoniae 426 isolate with erm(B) resistance gene from patient sinuitis by disk diffusion test; format: functional
Streptococcus pneumoniae [6] = experiment: Antimicrobial activity against telithromycin-resistant Streptococcus pneumoniae 427 isolate with erm(B) resistance gene from patient sinuitis by disk diffusion test; format: functional
Streptococcus pneumoniae [7] = experiment: Antimicrobial activity against telithromycin-resistant Streptococcus pneumoniae 443 isolate with erm(B) resistance gene from patient ear by disk diffusion test; format: functional
Streptococcus pneumoniae [8] = experiment: Antimicrobial activity against telithromycin-resistant Streptococcus pneumoniae 460 isolate with erm(B) resistance gene from patient ear by disk diffusion test; format: functional
Streptococcus pneumoniae [9] = experiment: Antimicrobial activity against telithromycin-resistant Streptococcus pneumoniae 547 isolate with erm(B) resistance gene from patient sinuitis by disk diffusion test; format: functional
Streptococcus pneumoniae [10] = experiment: Antimicrobial activity against telithromycin-resistant Streptococcus pneumoniae 552 isolate with erm(B) resistance gene from patient sinuitis by disk diffusion test; format: functional
Streptococcus pneumoniae [11] = experiment: Antimicrobial activity against telithromycin-resistant Streptococcus pneumoniae 683 isolate with erm(B) resistance gene from patient sputum by disk diffusion test; format: functional
Streptococcus pneumoniae [12] = experiment: Antimicrobial activity against telithromycin-resistant Streptococcus pneumoniae 811 isolate with erm(B) resistance gene from patient blood by disk diffusion test; format: functional
Streptococcus pneumoniae [13] = experiment: Antimicrobial activity against telithromycin-resistant Streptococcus pneumoniae 833 isolate with erm(B) resistance gene from patient sinuitis by disk diffusion test; format: functional
Streptococcus pneumoniae [14] = experiment: Antimicrobial activity against telithromycin-resistant Streptococcus pneumoniae 859 isolate with erm(B) resistance gene from patient bronchoalveolar lavage by disk diffusion test; format: functional, Lung
Streptococcus pneumoniae [15] = experiment: Antimicrobial activity against telithromycin-resistant Streptococcus pneumoniae 918 isolate with erm(B) resistance gene from patient eye by disk diffusion test; format: functional
Streptococcus pneumoniae [16] = experiment: Antimicrobial activity against telithromycin-resistant Streptococcus pneumoniae 981 isolate with erm(B) resistance gene from patient blood by disk diffusion test; format: functional
Streptococcus pneumoniae [17] = experiment: Antimicrobial activity against telithromycin-resistant Streptococcus pneumoniae 1016 isolate with erm(B) resistance gene from patient blood by disk diffusion test; format: functional
Streptococcus pneumoniae [18] = experiment: Antimicrobial activity against telithromycin-resistant Streptococcus pneumoniae 1017 isolate with erm(B) resistance gene from patient ear by disk diffusion test; format: functional
Streptococcus pneumoniae [19] = experiment: Antimicrobial activity against telithromycin-resistant Streptococcus pneumoniae 1022 isolate with erm(B) resistance gene from patient ear by disk diffusion test; format: functional
Streptococcus pneumoniae [20] = experiment: Antimicrobial activity against telithromycin-resistant Streptococcus pneumoniae 1041 isolate with erm(B) resistance gene from patient blood by disk diffusion test; format: functional
Streptococcus pneumoniae [21] = experiment: Antimicrobial activity against telithromycin-resistant Streptococcus pneumoniae 1051 isolate with erm(B) resistance gene from patient ear by disk diffusion test; format: functional
Streptococcus pneumoniae [22] = experiment: Antimicrobial activity against telithromycin-resistant Streptococcus pneumoniae 838 isolate with erm(B) and mef(E) resistance gene from patient ear by disk diffusion test; format: functional
Streptococcus pneumoniae [23] = experiment: Antimicrobial activity against telithromycin-resistant Streptococcus pneumoniae 759 isolate with erm(B) resistance gene from patient ear by disk diffusion test; format: functional
Streptococcus pneumoniae [24] = experiment: Antimicrobial activity against telithromycin-resistant Streptococcus pneumoniae 837 isolate with mutation in erm(B), mef(E), L4 Ser20Asn mutant gene from patient sputum by disk diffusion test; format: functional
Streptococcus pneumoniae [25] = experiment: Antimicrobial activity against telithromycin-resistant Streptococcus pneumoniae 326 isolate with erm(B) resistance gene from patient blood by disk diffusion test; format: functional
Streptococcus pneumoniae [26] = experiment: Antimicrobial activity against telithromycin-resistant Streptococcus pneumoniae 376 isolate with erm(B) resistance gene from patient ear by disk diffusion test; format: functional

**Q.** With `CC[C@H]1OC(=O)[C@H](C)[C@@H](O[C@H]2C[C@@](C)(OC)[C@@H](O)[C@H](C)O2)[C@H](C)[C@@H](O[C@@H]2O[C@H](C)C[C@H](N(C)C)[C@H]2O)[C@](C)(O)C[C@@H](C)C(=O)[C@H](C)[C@@H](O)[C@]1(C)O` [ERYTHROMYCIN] as the compound, how does the Activity (Streptococcus pneumoniae [1]) read?
**A.** 129 µg/mL

**Q.** And the Activity (Streptococcus pneumoniae [2])?
**A.** 129 µg/mL

**Q.** And the Activity (Streptococcus pneumoniae [3])?
**A.** 129 µg/mL

**Q.** And the Activity (Streptococcus pneumoniae [4])?
**A.** 129 µg/mL

**Q.** And the Activity (Streptococcus pneumoniae [5])?
**A.** 129 µg/mL

**Q.** And the Activity (Streptococcus pneumoniae [6])?
**A.** 129 µg/mL

**Q.** And the Activity (Streptococcus pneumoniae [7])?
**A.** 129 µg/mL

**Q.** What about the Activity (Streptococcus pneumoniae [8]) of the same compound?
**A.** 129 µg/mL

**Q.** And the Activity (Streptococcus pneumoniae [9])?
**A.** 129 µg/mL

**Q.** And the Activity (Streptococcus pneumoniae [10])?
**A.** 129 µg/mL

**Q.** And the Activity (Streptococcus pneumoniae [11])?
**A.** 129 µg/mL

**Q.** What about the Activity (Streptococcus pneumoniae [12]) of the same compound?
**A.** 129 µg/mL

**Q.** What about the Activity (Streptococcus pneumoniae [13]) of the same compound?
**A.** 129 µg/mL

**Q.** And the Activity (Streptococcus pneumoniae [14])?
**A.** 129 µg/mL

**Q.** And the Activity (Streptococcus pneumoniae [15])?
**A.** 129 µg/mL

**Q.** And the Activity (Streptococcus pneumoniae [16])?
**A.** 129 µg/mL

**Q.** What about the Activity (Streptococcus pneumoniae [17]) of the same compound?
**A.** 129 µg/mL

**Q.** What about the Activity (Streptococcus pneumoniae [18]) of the same compound?
**A.** 129 µg/mL

**Q.** And the Activity (Streptococcus pneumoniae [19])?
**A.** 129 µg/mL

**Q.** What about the Activity (Streptococcus pneumoniae [20]) of the same compound?
**A.** 129 µg/mL

**Q.** And the Activity (Streptococcus pneumoniae [21])?
**A.** 129 µg/mL

**Q.** And the Activity (Streptococcus pneumoniae [22])?
**A.** 129 µg/mL

**Q.** And the Activity (Streptococcus pneumoniae [23])?
**A.** 129 µg/mL

**Q.** What about the Activity (Streptococcus pneumoniae [24]) of the same compound?
**A.** 129 µg/mL

**Q.** And the Activity (Streptococcus pneumoniae [25])?
**A.** 129 µg/mL

**Q.** And the Activity (Streptococcus pneumoniae [26])?
**A.** 129 µg/mL

**Q.** For `CN(C)[C@@H]1C(O)=C(C(N)=O)C(=O)[C@@]2(O)C(O)=C3C(=O)c4c(O)cccc4[C@@](C)(O)[C@H]3C[C@@H]12` [TETRACYCLINE], which Activity (Streptococcus pneumoniae [1]) is on record?
**A.** 64 µg/mL

**Q.** What about the Activity (Streptococcus pneumoniae [2]) of the same compound?
**A.** 64 µg/mL

**Q.** What about the Activity (Streptococcus pneumoniae [3]) of the same compound?
**A.** 32 µg/mL

**Q.** What about the Activity (Streptococcus pneumoniae [4]) of the same compound?
**A.** 32 µg/mL

**Q.** What about the Activity (Streptococcus pneumoniae [5]) of the same compound?
**A.** 32 µg/mL

**Q.** And the Activity (Streptococcus pneumoniae [6])?
**A.** 32 µg/mL

**Q.** What about the Activity (Streptococcus pneumoniae [7]) of the same compound?
**A.** 32 µg/mL

**Q.** And the Activity (Streptococcus pneumoniae [8])?
**A.** 32 µg/mL

**Q.** And the Activity (Streptococcus pneumoniae [9])?
**A.** 32 µg/mL

**Q.** And the Activity (Streptococcus pneumoniae [10])?
**A.** 32 µg/mL

**Q.** And the Activity (Streptococcus pneumoniae [11])?
**A.** 32 µg/mL

**Q.** What about the Activity (Streptococcus pneumoniae [12]) of the same compound?
**A.** 16 µg/mL

**Q.** What about the Activity (Streptococcus pneumoniae [13]) of the same compound?
**A.** 32 µg/mL

**Q.** And the Activity (Streptococcus pneumoniae [14])?
**A.** 32 µg/mL

**Q.** And the Activity (Streptococcus pneumoniae [15])?
**A.** 32 µg/mL

**Q.** What about the Activity (Streptococcus pneumoniae [16]) of the same compound?
**A.** 32 µg/mL

**Q.** And the Activity (Streptococcus pneumoniae [17])?
**A.** 32 µg/mL

**Q.** What about the Activity (Streptococcus pneumoniae [18]) of the same compound?
**A.** 32 µg/mL

**Q.** And the Activity (Streptococcus pneumoniae [19])?
**A.** 32 µg/mL

**Q.** What about the Activity (Streptococcus pneumoniae [20]) of the same compound?
**A.** 32 µg/mL

**Q.** And the Activity (Streptococcus pneumoniae [21])?
**A.** 32 µg/mL

**Q.** And the Activity (Streptococcus pneumoniae [22])?
**A.** 32 µg/mL

**Q.** What about the Activity (Streptococcus pneumoniae [23]) of the same compound?
**A.** 32 µg/mL

**Q.** What about the Activity (Streptococcus pneumoniae [24]) of the same compound?
**A.** 64 µg/mL

**Q.** What about the Activity (Streptococcus pneumoniae [25]) of the same compound?
**A.** 32 µg/mL

**Q.** And the Activity (Streptococcus pneumoniae [26])?
**A.** 0.5 µg/mL

— ChEMBL document CHEMBL1145481, “Molecular epidemiology of telithromycin-resistant pneumococci in Finland” (2007)
